US20260115250A1, “METHODS OF TREATING AGE-RELATED MACULAR DEGENERATION” (Character Biosciences, Inc., priority 2022, published 2026)
Like-named read-outs stand apart in the source and are kept apart here. Ends that are not written are not given here. Peptide text beside a SMILES is read from it.

What was measured:
ARPE-19 cells = assay: ARPE-19 cholesterol efflux; type: cell-based, human; conditions: ARPE-19, 20 μM peptide, 4 hours
Description: Fully confluent 96-well plates of ARPE-19 cells were treated for 1 hour in serum-free DMEM containing 10 mM methyl-β-cyclodextrin, 100 μM cholesterol, and 25 μM BODIPY cholesterol. Cells were then washed and incubated overnight in serum-free DMEM containing 1 μM GW3965, 2 μg/mL ACAT inhibitor, and 0.2% BSA (LXR Agonist treated), or serum free DMEM containing 2 μg/mL ACAT inhibitor, and 0.2% BSA (Control). Cells were washed and incubated with 20 μM peptides diluted in serum-free Fluorobrite DMEM for 4 hours at 37° C. Media was transferred to a new 96-well plate and fresh serum-free Fluorobrite DMEM was placed on the cells. Media and cellular fluorescence were read on a Promega GloMax at 475 nm excitation, 500-550 emission. Fluorescence values were background corrected from no treatment conditions and percent efflux was calculated by the following equation: % efflux=(Media Fluorescence values)/(Media+Cell Fluorescence values). Data are presented as mean+SD over two runs per peptide.

ABCA1 = biological target: T1, ABCA1 (Homo sapiens, UniProt O95477); assay: membrane ABCA1 stability testing in ARPE-19 cells treated with mCRP; type: cell-based; conditions: ARPE-19, mCRP, 20 μM peptide, 24 hours
T1 construct: endogenous in cells; host or cells: ARPE-19
T1 sequence (O95477 whole entry): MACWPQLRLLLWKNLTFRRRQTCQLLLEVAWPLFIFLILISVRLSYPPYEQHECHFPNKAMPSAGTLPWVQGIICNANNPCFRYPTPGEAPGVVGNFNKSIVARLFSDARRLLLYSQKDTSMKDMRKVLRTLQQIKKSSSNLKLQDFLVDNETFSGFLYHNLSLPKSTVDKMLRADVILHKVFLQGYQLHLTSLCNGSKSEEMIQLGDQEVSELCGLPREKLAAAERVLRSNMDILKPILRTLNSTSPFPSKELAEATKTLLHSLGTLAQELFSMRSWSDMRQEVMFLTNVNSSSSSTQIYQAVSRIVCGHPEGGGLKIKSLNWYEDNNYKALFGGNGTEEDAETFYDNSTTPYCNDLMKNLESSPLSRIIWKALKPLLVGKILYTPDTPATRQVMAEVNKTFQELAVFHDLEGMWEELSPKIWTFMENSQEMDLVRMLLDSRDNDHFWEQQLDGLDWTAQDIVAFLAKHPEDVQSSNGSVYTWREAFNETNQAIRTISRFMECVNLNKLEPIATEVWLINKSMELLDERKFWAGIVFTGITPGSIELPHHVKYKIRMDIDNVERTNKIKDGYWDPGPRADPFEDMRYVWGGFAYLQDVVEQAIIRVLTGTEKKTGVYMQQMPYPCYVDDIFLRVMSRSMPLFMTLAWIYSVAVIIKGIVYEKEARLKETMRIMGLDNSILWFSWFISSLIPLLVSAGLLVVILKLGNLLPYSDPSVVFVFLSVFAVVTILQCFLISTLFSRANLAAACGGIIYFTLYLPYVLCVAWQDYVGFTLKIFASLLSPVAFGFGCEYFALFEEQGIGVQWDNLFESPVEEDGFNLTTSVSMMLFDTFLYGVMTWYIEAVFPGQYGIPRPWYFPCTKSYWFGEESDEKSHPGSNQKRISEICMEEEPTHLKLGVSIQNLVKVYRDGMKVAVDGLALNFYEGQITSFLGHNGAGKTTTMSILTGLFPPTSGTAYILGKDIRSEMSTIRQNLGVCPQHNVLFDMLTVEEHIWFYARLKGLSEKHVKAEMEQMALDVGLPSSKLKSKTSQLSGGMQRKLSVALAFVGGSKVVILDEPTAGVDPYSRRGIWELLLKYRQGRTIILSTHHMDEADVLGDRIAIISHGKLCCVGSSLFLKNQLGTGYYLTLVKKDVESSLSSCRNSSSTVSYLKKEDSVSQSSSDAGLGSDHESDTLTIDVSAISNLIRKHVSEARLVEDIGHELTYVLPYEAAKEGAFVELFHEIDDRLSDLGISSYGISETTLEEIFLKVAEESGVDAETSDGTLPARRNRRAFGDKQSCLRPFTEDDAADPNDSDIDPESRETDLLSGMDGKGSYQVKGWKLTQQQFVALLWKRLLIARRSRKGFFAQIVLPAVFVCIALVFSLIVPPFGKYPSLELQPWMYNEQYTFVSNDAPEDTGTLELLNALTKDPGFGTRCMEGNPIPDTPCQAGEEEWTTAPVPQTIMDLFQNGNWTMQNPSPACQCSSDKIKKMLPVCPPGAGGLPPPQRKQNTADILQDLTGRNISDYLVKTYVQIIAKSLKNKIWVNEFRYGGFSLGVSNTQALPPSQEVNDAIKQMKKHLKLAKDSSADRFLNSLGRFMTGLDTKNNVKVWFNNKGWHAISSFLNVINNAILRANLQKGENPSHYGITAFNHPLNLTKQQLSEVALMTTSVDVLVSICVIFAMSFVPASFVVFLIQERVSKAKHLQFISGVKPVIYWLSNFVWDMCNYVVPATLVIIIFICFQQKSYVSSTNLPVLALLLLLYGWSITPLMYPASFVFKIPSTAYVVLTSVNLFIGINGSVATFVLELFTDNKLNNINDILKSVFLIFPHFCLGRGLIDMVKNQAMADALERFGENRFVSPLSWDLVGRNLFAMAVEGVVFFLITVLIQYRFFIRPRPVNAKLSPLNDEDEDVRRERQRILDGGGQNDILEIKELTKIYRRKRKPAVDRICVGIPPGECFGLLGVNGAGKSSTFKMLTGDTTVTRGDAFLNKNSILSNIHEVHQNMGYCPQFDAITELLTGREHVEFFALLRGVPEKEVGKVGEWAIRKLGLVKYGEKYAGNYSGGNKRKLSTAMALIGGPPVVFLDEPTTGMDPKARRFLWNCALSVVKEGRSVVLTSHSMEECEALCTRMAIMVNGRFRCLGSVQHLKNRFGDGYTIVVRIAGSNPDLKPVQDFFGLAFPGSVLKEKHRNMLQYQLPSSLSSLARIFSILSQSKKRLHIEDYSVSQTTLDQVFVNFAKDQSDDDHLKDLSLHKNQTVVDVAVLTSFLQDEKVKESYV
Description: ARPE-19 cells were seeded at 100,000 cells per well on 12-well plates and were allowed to grow to confluence. To prepare monomeric CRP (mCRP), recombinant CRP was prepared in a PBS solution containing 8 M Urea and 10 mM EDTA and incubated at 37° C. for 2 hours prior to desalting with a Zeba spin column (7K MW cutoff). mCRP was prepared to a 2× solution of 20 μg/mL. A 2× solution of 40 μM peptides was prepared in serum-free DMEM and serially diluted 1:2 over 4 concentrations. mCRP and peptides were added 1:1 to cells for 24 hours at 37° C. before isolating membrane protein and measuring membrane ABCA1 levels by western blot. Blots were quantified in ImageJ. Signals were further normalized to the LXR agonist treated group to determine percent (%) ABCA1 remaining. Treatment with LXR agonist increased membrane ABCA1 levels in this assay, but following treatment with mCRP, membrane ABCA1 levels were decreased.
FIGS. 35 and 36 show membrane ABCA1 stability testing using ARPE-19 cells. ARPE-19 cells were seeded at 100,000 cells per well on 12-well plates and were allowed to grow to confluence. To prepare monomeric CRP (mCRP), recombinant CRP was prepared in a PBS solution containing 8 M Urea and 10 mM EDTA and incubated at 37° C. for 2 hours prior to desalting with a Zeba spin column (7K MW cutoff). mCRP was prepared to a 2× solution of 20 μg/mL. A 2× solution of 40 μM peptides was prepared in serum-free DMEM. CRP and peptides were added 1:1 to cells for 24 hours at 37° C. before isolating membrane protein and measuring membrane ABCA1 levels by western blot. Blots were quantified in ImageJ. In FIG. 35, Signals were further normalized to the T-087 treated group to determine percent (%) ABCA1 levels compared to peptide T-087 treated cells. In FIG. 36, Signals were further normalized to the peptide T-101 treated group to determine percent (%) ABCA1 levels compared to peptide T-101 treated cells.

LDLR = LDLR (Homo sapiens, UniProt P01130); assay: LDLR binding (SPR), high surfactant preparation
LDLR, sequence (P01130 22-860): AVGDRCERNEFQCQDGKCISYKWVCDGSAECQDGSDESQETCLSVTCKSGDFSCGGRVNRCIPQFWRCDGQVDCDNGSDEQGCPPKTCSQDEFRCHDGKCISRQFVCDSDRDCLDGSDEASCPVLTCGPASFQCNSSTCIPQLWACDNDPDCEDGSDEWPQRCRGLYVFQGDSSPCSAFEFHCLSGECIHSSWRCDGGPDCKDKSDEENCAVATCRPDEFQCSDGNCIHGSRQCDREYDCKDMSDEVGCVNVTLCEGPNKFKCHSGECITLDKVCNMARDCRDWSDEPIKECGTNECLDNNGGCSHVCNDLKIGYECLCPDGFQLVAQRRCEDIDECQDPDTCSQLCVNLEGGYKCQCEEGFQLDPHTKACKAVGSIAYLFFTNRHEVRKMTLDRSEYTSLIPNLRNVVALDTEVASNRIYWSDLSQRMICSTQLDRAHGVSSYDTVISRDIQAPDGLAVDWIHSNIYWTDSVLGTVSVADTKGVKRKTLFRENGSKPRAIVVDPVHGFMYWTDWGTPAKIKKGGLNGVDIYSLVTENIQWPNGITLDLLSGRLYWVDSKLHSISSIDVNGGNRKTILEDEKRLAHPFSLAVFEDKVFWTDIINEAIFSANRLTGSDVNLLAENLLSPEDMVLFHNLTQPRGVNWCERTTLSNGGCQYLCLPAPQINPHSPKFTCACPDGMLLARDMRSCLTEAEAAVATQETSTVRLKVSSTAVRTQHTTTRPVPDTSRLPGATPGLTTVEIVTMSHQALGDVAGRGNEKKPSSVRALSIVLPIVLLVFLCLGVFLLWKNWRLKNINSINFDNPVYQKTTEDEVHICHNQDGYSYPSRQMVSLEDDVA
Description: The table shown in FIG. 23 illustrates LDLR binding data (SPR), using a high surfactant preparation. Recombinant LDLR was diluted in 10 mM acetate buffer pH 4.5 and amine coupled to a CM5 chip at 1000 RU. Peptides were diluted to 5 μM in running buffer (HBS-P+, 1 mM CaCl2) and serially diluted 1:3 for 5 total concentrations. Peptides were exposed to immobilized LDLR at a rate of […] for 120 seconds. Between cycles, the chip surface was regenerated with 3 injections of 50 mM NaOH/100 mM EDTA. Multi-Cycle Kinetics was performed on a Biacore Insight Evaluation Software and binding kinetics were analyzed with a 1:1 binding model.

[1] = high surfactant preparation (HBS-P+), 1:1 binding model, read-out: binding KD to LDLR

Compound	cholesterol efflux following LXR agonist treatment (ARPE-19 cells)	membrane ABCA1 levels compared to peptide T-087 treated cells (ABCA1)	Kd (LDLR; [1]) [µM]	Kd (LDLR) [µM]
T-171: variant of peptide T-087 (DAWERFRALFKELADYAR)	increased cholesterol efflux	–	–	–
T-168: variant of peptide T-087 (DAWERFRALFKELGDYFR)	increased cholesterol efflux	–	–	–
T-164: variant of peptide T-087 (DAWERFRALFAELADYFR)	increased cholesterol efflux	–	–	–
T-155: variant of peptide T-087 (DAAERFRALFKELADYFR)	increased cholesterol efflux	reduction of membrane ABCA1 levels	–	–
T-178: variant of peptide T-087 (DAWERFRALFKELADAAA)	increased cholesterol efflux	–	–	–
T-167: variant of peptide T-087 (DAWERFRALFKELPDYFR)	increased cholesterol efflux	reduction of membrane ABCA1 levels	–	–
T-162: variant of peptide T-087 (DAWERFRAAFKELADYFR)	increased cholesterol efflux	reduction of membrane ABCA1 levels	–	–
T-176: variant of peptide T-087 (DAWERFRALAAALADYFR)	increased cholesterol efflux	–	–	–
T-174: variant of peptide T-087 (DAWAAARALFKELADYFR)	increased cholesterol efflux	–	–	–
T-170: variant of peptide T-087 (DAWERFRALFKELADAFR)	increased cholesterol efflux	reduction of membrane ABCA1 levels	–	–
T-153: variant of peptide T-087 (DPWERFRALFKELADYFR)	increased cholesterol efflux	–	–	–
T-157: variant of peptide T-087 (DAWEAFRALFKELADYFR)	increased cholesterol efflux	reduction of membrane ABCA1 levels	–	–
T-166: variant of peptide T-087 (DAWERFRALFKEAADYFR)	increased cholesterol efflux	reduction of membrane ABCA1 levels	–	–
T-158: variant of peptide T-087 (DAWERARALFKELADYFR)	increased cholesterol efflux	reduction of membrane ABCA1 levels	–	–
T-159: variant of peptide T-087 (DAWERFAALFKELADYFR)	increased cholesterol efflux	reduction of membrane ABCA1 levels	–	–
CC(C)C[C@H](NC(=O)[C@H](CCCNC(=N)N)NC(=O)[C@H](CCCCN)NC(=O)[C@H](CCC(N)=O)NC(=O)[C@H](CC(C)C)NC(=O)[C@H](CCCCN)NC(=O)[C@H](CC(=O)O)NC(=O)CNC(=O)[C@H](CC(=O)O)NC(=O)[C@H](CCCNC(=N)N)NC(=O)[C@H](CC(C)C)NC(=O)[C@H](CC(C)C)NC(=O)[C@H](CCCNC(=N)N)NC(=O)[C@H](CCCCN)NC(=O)[C@H](CCCNC(=N)N)NC(=O)[C@H](CC(C)C)NC(=O)[C@H](CCCCN)NC(=O)[C@H](CCCNC(=N)N)NC(=O)[C@H](CC(C)C)NC(=O)[C@@H](N)Cc1c[nH]cn1)C(=O)N[C@@H](C)C(=O)N[C@@H](CCC(=O)O)C(=O)N[C@@H](Cc1ccc(O)cc1)C(=O)N[C@@H](CCC(N)=O)C(=O)N[C@@H](C)C(=O)N[C@@H](CCCNC(=N)N)C(=O)N[C@@H](C)C(=O)N[C@@H](CCCCN)C(=O)N[C@@H](CCC(=O)O)C(=O)N[C@@H](C)C(=O)N[C@@H](Cc1ccccc1)C(=O)N[C@@H](CC(=O)O)C(=O)N[C@@H](CCCNC(=N)N)C(=O)O [T-052] (H-HLRKLRKRLLRDGDKLQKRLAEYQARAKEAFDR-OH)	–	–	< 10	–
DAWERFRALFKELADYFRLGQSTEELRVRLASHLRKLRKRLLRDADDLQKRLAVYQA [T-116]	–	–	–	< 10
CC(C)C[C@H](NC(=O)[C@H](CCCNC(=N)N)NC(=O)[C@H](CCCCN)NC(=O)[C@H](CCC(N)=O)NC(=O)[C@H](CC(C)C)NC(=O)[C@H](CC(=O)O)NC(=O)[C@H](CC(=O)O)NC(=O)[C@H](C)NC(=O)[C@H](CC(=O)O)NC(=O)[C@H](CCCNC(=N)N)NC(=O)[C@H](CC(C)C)NC(=O)[C@H](CC(C)C)NC(=O)[C@H](CCCNC(=N)N)NC(=O)[C@H](CCCCN)NC(=O)[C@H](CCCNC(=N)N)NC(=O)[C@H](CC(C)C)NC(=O)[C@H](CCCCN)NC(=O)[C@H](CCCNC(=N)N)NC(=O)[C@H](CC(C)C)NC(=O)[C@H](Cc1c[nH]cn1)NC(=O)[C@H](CO)NC(=O)[C@H](C)NC(=O)[C@@H](N)CC(C)C)C(=O)N[C@@H](C)C(=O)N[C@H](C(=O)N[C@@H](Cc1ccc(O)cc1)C(=O)N[C@@H](CCC(N)=O)C(=O)N[C@@H](C)C(=O)NCC(=O)N[C@@H](C)C(=O)N[C@@H](CCCNC(=N)N)C(=O)N[C@@H](CCC(=O)O)C(=O)NCC(=O)N[C@@H](C)C(=O)N[C@@H](CCC(=O)O)C(=O)N[C@@H](CCCNC(=N)N)C(=O)O)C(C)C [T-046]	–	–	< 10	–
T-175: variant of peptide T-087 (DAWERFAAAFKELADYFR)	increased cholesterol efflux	–	–	–
MEDVRGRLVQYRGEVQAMLGQSTEELRVRLASHLRKLRKRLLRDADDLQKRLAVYQA [T-068]	–	–	–	< 10
T-154: variant of peptide T-087 (DGWERFRALFKELADYFR)	increased cholesterol efflux	–	–	–
T-156: variant of peptide T-087 (DAWARFRALFKELADYFR)	increased cholesterol efflux	reduction of membrane ABCA1 levels	–	–
